From US20120149902A1, “PYRROLO[2,3-D]PYRIMIDINE DERIVATIVE” (UBE INDUSTRIES, LTD., priority 2009, published 2012)
One block for each compound: values may come before it.

Key:
[1] = tested on: HER2 overexpressed gastric cancer cell line NCI-N87; experiment: Cytotoxic activity (in vitro), CellTiter-Glo viable cell count; type: cell-based; settings: Homo sapiens, NCI-N87, 72 h, NCI-N87, cultured for 72 hours
Method: The cytotoxic activity of a compound of the present invention was investigated using a HER2 overexpressed gastric cancer cell line NCI-N87. Specifically, an appropriate amount of cells was seeded into a 96-well plate for cell culture at 50 μL/well, and precultured overnight at 37° C. under 5% —CO2 condition. A solution of a test compound in DMSO with dilution series was diluted with medium, and added to the precultured cells at the volume of 50 μL/well. The mixture was prepared such that the final concentration of DMSO became 0.1%. After the mixture was cultured for 72 hours at 37° C. under 5% —CO2 condition, 100 μL/well of CellTiter-Glo solution (Promega, Madison, Wis.) was added, the luminescence was measured using a luminometer (Wallac ARVO™ SX) 10 minutes later, and the viable cell count was determined.

[2] = target: T1, purified human recombinant HER2 kinase (Lys676-Val1255, GST fusion) (Homo sapiens, UniProt P04626); experiment: HER2 kinase enzyme inhibitory activity (HTRF); type: biochemical; settings: 200 μM ATP, FLT3 analogous peptide substrate, 60 minutes at room temperature
T1 construct: human recombinant HER2 kinase (Lys676-Val1255, GST fusion); GST
Method: The HER2 kinase enzyme inhibitory activity of a compound of the present invention was evaluated by using a purified human recombinant HER2 kinase (Lys676-Val1255, GST fusion) and a synthetic peptide as a substrate, and detecting the phosphorylation level of the substrate by the HTRF method (homogeneous time resolved fluorescence method). Specifically, 25 ng/well of activated HER2, 200 μM of ATP, 200 ng/well of FLT3 analogous peptide (biotin label, peptide sequence is AGGSSDNEYFYVDF), and test compound (final concentration 0.01 nM to 30 μM) were mixed in kinase reaction buffer (60 mM HEPES, 5 mM MgCl2, 5 mM MnCl2, 3 mM Na3VO4, 1.25 mM DTT, pH 7.5) to prepare 50 μL/well of total reaction volume, and the mixture was reacted for 60 minutes at room temperature. Then, the phosphorylation reaction was stopped and HTRF reaction was carried out by adding 25 μL/well of PBS solution comprising the following components and reacting the mixture for 12 to 16 hours at 4° C. The following components were dissolved in PBS (pH 7.0) to prepare the PBS solution composition: 60 mM EDTA (final concentration 20 mM), 1.2 M KF (final concentration […]), 1 mg/mL BSA (final concentration 333 μg/mL), 6 μg/mL anti-PY20-Cryptate (Cisbio international, France, final concentration 2 μg/mL), and 15 μg/mL Streptavidin labeled with XL665 (Cisbio international, France, final concentration 5 μg/mL).

[3] = tested on: HER2 overexpressed gastric cancer cell line; experiment: In vivo anti-tumor effect, subcutaneous tumor transplant in nude mouse; settings: oral, daily except Saturday and Sunday, 2 to 4 weeks, read-out: Tumor growth inhibition ratio (%); for inhibition in vivo at 30 mg/kg: dosage 30 mg/kg; for inhibition in vivo at 100 mg/kg: dosage 100 mg/kg; for inhibition in vivo at 60 mg/kg: dosage 60 mg/kg
Method: The anti-tumor effect in vivo of a compound of the present invention was evaluated using a HER2 overexpressed gastric cancer cell line. Specifically, a tumor fragment with about 5 mm square was transplanted subcutaneously using a transplantation needle, or an appropriate number of tumor cells was suspended in saline (Otsuka Pharmaceutical Co., Ltd.) and transplanted under the skin of the right axillary region of a nude mouse using a glass syringe equipped with a two-stage needle for subcutaneous injection. After the confirmation of the engraftment of the transplanted tumors, the mice were classified into groups depending on the tumor volume. The test compounds: the Example Compounds 1-1, 1-2, 1-5, 1-8, 1-13, 1-14, 1-15, 1-19, 1-20, 1-22, 2-1, 2-3, and 3-2 were each dissolved or suspended in an appropriate medium and orally administered forcedly to a mouse. The period of administration was varied from 2 weeks to 4 weeks depending on tumor, and the administration was carried out daily with drug holidays of Saturday and Sunday. The major axis (mm) and the minor axis (mm) of a tumor were measured sequentially using an electronic digital vernier caliper, and evaluated by the tumor growth inhibition ratio (GI %) on the judgement day (in principle, the next day of the final administration) using the following calculating formula.
A: Average tumor volume on the judgement day of the group to which a compound was administered (*)
B: Average tumor volume on the judgement day of the untreated control group (*)
*: The tumor volume is calculated by ½×[major axis of tumor]×[minor axis of tumor]^2.

T1 sequence (P04626 676-1255): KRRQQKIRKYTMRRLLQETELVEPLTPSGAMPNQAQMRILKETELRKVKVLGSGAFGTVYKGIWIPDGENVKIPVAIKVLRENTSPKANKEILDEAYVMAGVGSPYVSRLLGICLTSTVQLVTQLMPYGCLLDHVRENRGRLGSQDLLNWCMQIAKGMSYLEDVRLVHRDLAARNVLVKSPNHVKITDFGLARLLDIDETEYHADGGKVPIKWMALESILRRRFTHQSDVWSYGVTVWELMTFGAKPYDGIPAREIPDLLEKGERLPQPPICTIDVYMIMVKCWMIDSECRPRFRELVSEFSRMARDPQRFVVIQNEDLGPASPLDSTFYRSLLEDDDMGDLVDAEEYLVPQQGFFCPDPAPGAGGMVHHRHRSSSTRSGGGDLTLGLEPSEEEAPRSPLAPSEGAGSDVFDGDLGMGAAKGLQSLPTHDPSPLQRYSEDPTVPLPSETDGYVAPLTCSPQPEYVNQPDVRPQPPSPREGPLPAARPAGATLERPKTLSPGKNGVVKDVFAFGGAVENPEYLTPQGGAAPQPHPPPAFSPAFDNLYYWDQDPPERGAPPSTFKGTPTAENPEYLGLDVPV

IC50 [2]: ≥ 100 nM
SMILES: CC1CN(Cc2c[nH]c3ncnc(Nc4ccc(Cl)cc4)c23)CCC1N (single isomer, unassigned; enantiomer 2) [Example 1-23, trans-[5-(4-Amino-3-methylpiperidin-1-ylmethyl)-7H-pyrrolo[2,3-d]pyrimidin-4-yl](4-chlorophenyl)amine [Enantiomer 2]]

IC50 [2]: < 10 nM
SMILES: C#CCNC1CCN(Cc2c[nH]c3ncnc(Nc4cccc(C#C)c4)c23)CC1 [Example 3-2, (3-Ethynylphenyl) [5-(4-prop-2-ynylaminopiperidin-1-ylmethyl)-7H-pyrrolo[2,3-d]pyrimidin-4-yl]amine]
GI50 [1]: < 20 nM | inhibition in vivo at 60 mg/kg [3]: 91%

IC50 [2]: < 10 nM
SMILES: COCC1(N)CCN(Cc2c[nH]c3ncnc(Nc4cccc(Br)c4)c23)CC1 [Example 1-16, [5-(4-Amino-4-methoxymethylpiperidin-1-ylmethyl)-7H-pyrrolo[2,3-d]pyrimidin-4-yl](3-bromophenyl)amine]
GI50 [1]: < 20 nM

IC50 [2]: 10 to 50 nM
SMILES: C#Cc1cccc(Nc2ncnc3[nH]cc(CN4CCC(C)(N)CC4)c23)c1 [Example 1-14, [5-(4-Amino-4-methylpiperidin-1-ylmethyl)-7H-pyrrolo[2,3-d]pyrimidin-4-yl](3-ethynylphenyl)amine]
inhibition in vivo at 10 mg/kg ([3]; dosage 10 mg/kg): 75%

IC50 [2]: < 10 nM
SMILES: NC1CCN(Cc2c[nH]c3ncnc(Nc4cccc(Br)c4)c23)CC1 [Example 1-8, [5-(4-Aminopiperidin-1-ylmethyl)-7H-pyrrolo[2,3-d]pyrimidin-4-yl](3-bromophenyl)amine]
GI50 [1]: < 20 nM | inhibition in vivo at 30 mg/kg [3]: 59%

IC50 [2]: 50 to 100 nM
SMILES: COCC1(N)CCN(Cc2c[nH]c3ncnc(Nc4ccc5occc5c4)c23)CC1 [Example 1-17, [5-(4-Amino-4-methoxymethylpiperidin-1-ylmethyl)-7H-pyrrolo[2,3-d]pyrimidin-4-yl](benzofuran-5-yl)amine]
GI50 [1]: 20 to 50 nM

IC50 [2]: < 10 nM
SMILES: COc1cccc(Nc2ncnc3[nH]cc(CN4CCC(C)(N)CC4)c23)c1 [Example 1-13, [5-(4-Amino-4-methylpiperidin-1-ylmethyl)-7H-pyrrolo[2,3-d]pyrimidin-4-yl](3-methoxyphenyl)amine]
inhibition in vivo at 30 mg/kg [3]: 72%

IC50 [2]: 10 to 50 nM
SMILES: NC1CCN(Cc2c[nH]c3ncnc(Nc4ccc5[nH]ncc5c4)c23)CC1 [Example 1-9, [5-(4-Aminopiperidin-1-ylmethyl)-7H-pyrrolo[2,3-d]pyrimidin-4-yl](1H-indazol-5-yl)amine]
GI50 [1]: 50 to 500 nM

IC50 [2]: < 10 nM
SMILES: Cc1ccc(Nc2ncnc3[nH]cc(CN4CCC(N)CC4)c23)cc1Br [Example 1-6, [5-(4-Aminopiperidin-1-ylmethyl)-7H-pyrrolo[2,3-d]pyrimidin-4-yl](3-bromo-4-methylphenyl)amine]
GI50 [1]: 20 to 50 nM

IC50 [2]: 50 to 100 nM
SMILES: CC1CN(Cc2c[nH]c3ncnc(Nc4ccc(Cl)cc4)c23)CCC1N (single isomer, unassigned; enantiomer 1) [Example 1-22, trans-[5-(4-Amino-3-methylpiperidin-1-ylmethyl)-7H-pyrrolo[2,3-d]pyrimidin-4-yl](4-chlorophenyl)amine [Enantiomer 1]]
inhibition in vivo at 60 mg/kg [3]: 88%

IC50 [2]: 10 to 50 nM
SMILES: NC1CCN(Cc2c[nH]c3ncnc(Nc4cc(F)cc(Br)c4)c23)CC1 [Example 1-11, [5-(4-Aminopiperidin-1-ylmethyl)-7H-pyrrolo[2,3-d]pyrimidin-4-yl](3-bromo-5-fluorophenyl)amine]
GI50 [1]: 20 to 50 nM

IC50 [2]: 10 to 50 nM
SMILES: NC1CCN(Cc2c[nH]c3ncnc(Nc4cc(F)c(F)c(F)c4)c23)CC1 [Example 1-7, [5-(4-Aminopiperidin-1-ylmethyl)-7H-pyrrolo[2,3-d]pyrimidin-4-yl](3,4,5-trifluorophenyl)amine]
GI50 [1]: < 20 nM

Continued, compound first:

SMILES: N[C@@H]1CCN(Cc2c[nH]c3ncnc(Nc4ccc5occc5c4)c23)C[C@H]1O (relative stereo) [Example 2-2, trans-4-Amino-1-[4-(benzofuran-5-ylamino)-7H-pyrrolo[2,3-d]pyrimidin-5-ylmethyl]piperidin-3-ol]
GI50 [1]: 20 to 50 nM

SMILES: C#Cc1cccc(Nc2ncnc3[nH]cc(CN4CCC(N)CC4)c23)c1 [Example 1-5, [5-(4-Aminopiperidin-1-ylmethyl)-7H-pyrrolo[2,3-d]pyrimidin-4-yl](3-ethynylphenyl)amine]
inhibition in vivo at 30 mg/kg [3]: 90%

SMILES: N[C@@H]1CCN(Cc2c[nH]c3ncnc(Nc4cccc(Br)c4)c23)C[C@H]1O (relative stereo) [Example 2-3, trans-4-Amino-1-[4-(3-bromophenylamino)-7H-pyrrolo[2,3-d]pyrimidin-5-ylmethyl]piperidin-3-ol]
GI50 [1]: < 20 nM | inhibition in vivo at 100 mg/kg [3]: 76%

SMILES: NC1CCN(Cc2c[nH]c3ncnc(Nc4ccc5occc5c4)c23)CC1 [Example 1-1, [5-(4-Aminopiperidin-1-ylmethyl)-7H-pyrrolo[2,3-d]pyrimidin-4-yl]benzofuran-5-ylamine]
GI50 [1]: 20 to 50 nM | inhibition in vivo at 60 mg/kg [3]: 84%

SMILES: COc1ccc(Nc2ncnc3[nH]cc(CN4CCC(N)CC4)c23)cc1 [Example 1-19, [5-(4-Aminopiperidin-1-ylmethyl)-7H-pyrrolo[2,3-d]pyrimidin-4-yl](4-methoxyphenyl)amine]
GI50 [1]: 50 to 500 nM | inhibition in vivo at 100 mg/kg [3]: 44% | IC50 [2]: ≥ 100 nM

SMILES: C[C@@H]1CN(Cc2c[nH]c3ncnc(Nc4ccc(Cl)cc4)c23)CC[C@H]1N (relative stereo) [Example 1-21, trans-[5-(4-Amino-3-methylpiperidin-1-ylmethyl)-7H-pyrrolo[2,3-d]pyrimidin-4-yl](4-chlorophenyl)amine]
GI50 [1]: 20 to 50 nM | IC50 [2]: 50 to 100 nM

SMILES: C#Cc1cccc(Nc2ncnc3[nH]cc(CN4CCC(NC)CC4)c23)c1 [Example 3-1, (3-Ethynylphenyl)[5-(4-methylaminopiperidin-1-ylmethyl)-7H-pyrrolo[2,3-d]pyrimidin-4-yl]amine]
GI50 [1]: < 20 nM | IC50 [2]: < 10 nM

SMILES: CNC1CCN(Cc2c[nH]c3ncnc(Nc4cccc(Br)c4)c23)CC1 [Example 1-18]
GI50 [1]: < 20 nM | IC50 [2]: < 10 nM

SMILES: NC1CCN(Cc2c[nH]c3ncnc(Nc4ccc(Cl)c(Cl)c4)c23)CC1 [Example 1-10, [5-(4-Aminopiperidin-1-ylmethyl)-7H-pyrrolo[2,3-d]pyrimidin-4-yl](3,4-dichlorophenyl)amine]
GI50 [1]: 20 to 50 nM | IC50 [2]: < 10 nM

SMILES: N[C@@H]1CCN(Cc2c[nH]c3ncnc(Nc4ccc(F)c(Cl)c4)c23)C[C@H]1O (relative stereo) [Example 2-1, trans-4-Amino-1-[4-(3-chloro-4-fluorophenylamino)-7H-pyrrolo[2,3-d]pyrimidin-5-ylmethyl]piperidin-3-ol]
GI50 [1]: 20 to 50 nM | inhibition in vivo at 100 mg/kg [3]: 52%

SMILES: CC1(N)CCN(Cc2c[nH]c3ncnc(Nc4cccc(Br)c4)c23)CC1 [Example 1-12, [5-(4-Amino-4-methylpiperidin-1-ylmethyl)-7H-pyrrolo[2,3-d]pyrimidin-4-yl](3-bromophenyl)amine]
IC50 [2]: < 10 nM

SMILES: NC1CCN(Cc2c[nH]c3ncnc(Nc4ccc(F)c(Cl)c4)c23)CC1 [Example 1-2, [5-(4-Aminopiperidin-1-ylmethyl)-7H-pyrrolo[2,3-d]pyrimidin-4-yl](3-chloro-4-fluorophenyl)amine]
GI50 [1]: 20 to 50 nM | inhibition in vivo at 30 mg/kg [3]: 75%
